Earlier results on one molecule are cited in patent US11786460B2, “Pharmaceutical dry powder composition for inhalation comprising a thyroid hormone” (priority 2018, dated 2023).

For data set [1] the following is noted: mainly in the jejunum and ileum.
The next data set relates to Calu-3 cells. The following applies: in vitro.

`N[C@@H](Cc1cc(I)c(Oc2cc(I)c(O)c(I)c2)c(I)c1)C(=O)O` [levothyroxine]: in data set [1], the “fraction absorbed after oral administration” value is listed as 60-80%. In addition, the “absorption from the respiratory mucosa (permeability)” value in the data set with Calu-3 cells is given as “can be absorbed effectively from the respiratory mucosa”.
